Measured values as given in ChEMBL document CHEMBL1136825, “Synthesis and biological evaluation of 4-deacetoxy-1,7-dideoxy azetidine paclitaxel analogues” (2003).

Legend:
Format in all cases: functional, Homo sapiens
A549 = experiment: Concentration required for 50% inhibition of proliferation of lung cancer cell line, A549 with respect to paclitaxel was tested in vitro after 72 hr of incubation
MCF7 = experiment: Concentration required for 50% inhibition of proliferation of breast cancer cell line, MCF-7 with respect to paclitaxel was tested in vitro after 72 hr of incubation
SK-OV-3 = experiment: Concentration required for 50% inhibition of proliferation of ovarian cancer cell line, SKOV3 with respect to paclitexal was tested in vitro after 72 hr of incubation

Structure (SMILES) | Ratio (A549) | Ratio (MCF7) | Ratio (SK-OV-3)
CC(=O)O[C@H]1[C@@H]2[C@@H]3CN[C@@H]3CC[C@@]2(C)[C@@H](OC(C)=O)[C@H](OC(C)=O)C2=C(C)[C@@H](OC(=O)[C@H](O)[C@@H](NC(=O)c3ccccc3)c3ccccc3)C[C@@H]1C2(C)C | 4.5 | 4.9 | 4.6
CC(=O)O[C@H]1[C@@H]2[C@@H]3CN(C(=O)C(F)(F)F)[C@@H]3CC[C@@]2(C)[C@@H](OC(C)=O)[C@H](OC(C)=O)C2=C(C)[C@@H](OC(=O)[C@H](O)[C@@H](NC(=O)c3ccccc3)c3ccccc3)C[C@@H]1C2(C)C | 3.2 | 3.8 | 4.7
CC(=O)O[C@H]1[C@@H]2[C@@H]3CN(C(C)=O)[C@@H]3CC[C@@]2(C)[C@@H](OC(C)=O)[C@H](OC(C)=O)C2=C(C)[C@@H](OC(=O)[C@H](O)[C@@H](NC(=O)c3ccccc3)c3ccccc3)C[C@@H]1C2(C)C | 2.9 | 3.6 | 5.8
COc1ccc(OC2O[C@@H](C(=O)O[C@H]3C[C@H]4[C@@H](OC(C)=O)[C@@H]5[C@@H]6CN[C@@H]6CC[C@@]5(C)[C@@H](OC(C)=O)[C@H](OC(C)=O)C(=C3C)C4(C)C)[C@H](c3ccccc3)N2C(=O)c2ccccc2)cc1 (stereo partly drawn) | 6.8 | 8.6 | 9.3
COc1ccc(OC2O[C@@H](C(=O)O[C@H]3C[C@H]4[C@@H](OC(C)=O)[C@@H]5[C@@H]6CN(C(C)=O)[C@@H]6CC[C@@]5(C)[C@@H](OC(C)=O)[C@H](OC(C)=O)C(=C3C)C4(C)C)[C@H](c3ccccc3)N2C(=O)c2ccccc2)cc1 (stereo partly drawn) | 6.9 | 9.3 | 10.2
CC(=O)O[C@H]1C(=O)[C@@]2(C)[C@H]([C@H](OC(=O)c3ccccc3)[C@]3(O)C[C@H](OC(=O)[C@H](O)[C@@H](NC(=O)c4ccccc4)c4ccccc4)C(C)=C1C3(C)C)[C@]1(OC(C)=O)CO[C@@H]1C[C@@H]2O [PACLITAXEL] | 1 | 1 | 1
